# Data: ChEMBL document CHEMBL1122212, “Substance P” (1982)
# Square brackets hold non-standard residues; d marks the D form. Peptide text beside a SMILES is read from it. pGlu = O=C1CC[C@@H](C(=O)O)N1
# Key:
# Cavia porcellus [1] = organism: Cavia porcellus; experiment: Potency of compound was determined for contraction of guinea pig ileum relative to substance P(=1); type: functional
# Cricetinae gen. sp. = experiment: Potency of compound was determined in hamster bladder relative to substance E; type: functional
# Rattus norvegicus [2] = organism: Rattus norvegicus; experiment: Potency of compound was determined in rat duodenum relative to substance E; type: functional
# Rattus norvegicus [3] = organism: Rattus norvegicus; experiment: Potency of compound was determined for contraction of rat bladder relative to substance P(=1); type: functional
# [4] = molecular target: Substance-P receptor (Rattus norvegicus) (UniProt P14600); experiment: Potency for [3H]SP binding to Tachykinin receptor 1 in rat brain central nervous system (CNS); type: tissue-based
# Rattus norvegicus [5] = organism: Rattus norvegicus; experiment: Potency of compound was determined in rat vas deferens relative to substance E; type: functional
# Cavia porcellus [6] = organism: Cavia porcellus; experiment: Potency of compound was determined for contraction of guinea pig vas deferens relative to substance P(=1); type: functional
# Chain of Substance-P receptor (Rattus norvegicus) (P14600 whole entry): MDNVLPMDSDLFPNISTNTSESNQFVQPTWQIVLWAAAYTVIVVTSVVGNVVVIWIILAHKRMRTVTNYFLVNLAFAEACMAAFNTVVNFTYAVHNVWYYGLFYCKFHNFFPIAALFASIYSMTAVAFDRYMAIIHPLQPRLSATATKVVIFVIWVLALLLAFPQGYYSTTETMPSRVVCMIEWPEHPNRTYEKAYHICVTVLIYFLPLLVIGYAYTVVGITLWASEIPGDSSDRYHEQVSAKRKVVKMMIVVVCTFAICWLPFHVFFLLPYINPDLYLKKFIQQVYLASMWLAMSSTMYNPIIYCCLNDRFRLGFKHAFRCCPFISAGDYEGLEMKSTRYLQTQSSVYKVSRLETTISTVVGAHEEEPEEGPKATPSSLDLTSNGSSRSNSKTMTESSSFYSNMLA
smiles,measurement,setting,value
CC[C@H](C)[C@H](NC(=O)[C@H](Cc1ccccc1)NC(=O)[C@H](C)NC(=O)[C@H](CC(=O)O)NC(=O)[C@H](CCCCN)NC(=O)[C@H](CO)NC(=O)[C@@H]1CCCN1C(=O)[C@@H]1CCC(=O)N1)C(=O)NCC(=O)N[C@@H](CC(C)C)C(=O)N[C@@H](CCSC)C(N)=O [ELEDOISIN] ([pGlu]PSKDAFIGLM-NH2),Potency,Cavia porcellus [1],0.9
same,Potency,Cricetinae gen. sp.,105
same,Potency,Rattus norvegicus [2],13.9
same,Potency,Rattus norvegicus [3],0.96
same,Potency,[4],0.3
same,Potency,Rattus norvegicus [5],86
same,Potency,Cavia porcellus [6],0.6
